We go through eleven molecules from patent US6706740B2, “Fungicidal heterocyclic aromatic amides and their compositions, methods of use and preparation” (Dow AgroSciences LLC, priority 1999, dated 2004).

Assay [1] deals with Phytophthora infestans (PHYTIN). The assay can be described thus: microbe, parasite or virus in culture. Type of assay: cell-based. The note with it: Phytophthora infestans, read-out: PHYTIN in vitro Growth Inhibition.
Assay [2] has as its system Rhizoctonia solani (RHIZSO). The experiment in a line: microbe, parasite or virus in culture. It is filed as cell-based. Conditions: Rhizoctonia solani, read-out: RHIZSO in vitro Growth Inhibition.
The next assay concerns Erysiphe graminis—ERYSGT. The experiment in a line: Powdery Mildew of Wheat, in vivo whole plant, 24 Hour Protectant. The note with it: Erysiphe, read-out: ERYSGT in vivo 1 Day Protectant.
The subject of assay [3] is Mycosphaerella graminicola (Septoria tritici—SEPTTR). The assay can be described thus: In vitro fungal growth inhibition, Mycosphaerella graminicola (SEPTTR). Conditions: Zymoseptoria tritici, read-out: SEPTTR in vitro Growth Inhibition. Type of assay: cell-based.
In another assay the test system is Septoria tritici—SEPTTR. The experiment in a line: Leaf Blotch of Wheat, in vivo whole plant, 24 Hour Protectant. The note with it: Zymoseptoria tritici, 24 h, read-out: SEPTTR in vivo 1 Day Protectant.
The test system of assay [4] is Leptosphaeria nodorum—LEPTNO. The assay can be described thus: Glume Blotch of Wheat, in vivo whole plant, 24 Hour Protectant. The note with it: for pest or weed control at 100 ppm: Leptosphaeria, read-out: LEPTNO in vivo 1 Day Protectant.
The subject of assay [5] is Puccinia recondita—PUCCRT. The assay can be described thus: Brown Rust of Wheat, in vivo whole plant, 24 Hour Protectant. Conditions: for pest or weed control at 100 ppm: Puccinia, read-out: PUCCRT in vivo 1 Day Protectant.
Assay [6] concerns Magnaporthe grisea (Pyricularia oryzae—PYRIOR). The experiment in a line: microbe, parasite or virus in culture. Type of assay: cell-based. Conditions: Pyricularia oryzae, read-out: PYRIOR in vitro Growth Inhibition.
The subject of assay [7] is Stagonospora nodorum (Leptosphaeria nodorum—LEPTNO). The assay can be described thus: In vitro fungal growth inhibition, Stagonospora nodorum (LEPTNO). Type of assay: cell-based. The note with it: Leptosphaeria, read-out: LEPTNO in vitro Growth Inhibition.
Assay [8] relates to Phytophthora infestans—PHYTIN. The experiment in a line: whole plant or invertebrate. It is filed as in vivo. Conditions: Phytophthora, in Solanum lycopersicum, 24 h, read-out: PHYTIN in vivo 1 Day Protectant.
The next assay deals with Ustilago maydis (USTIMA). The experiment in a line: microbe, parasite or virus in culture. The note with it: Mycosarcoma maydis, read-out: USTIMA in vitro Growth Inhibition. It is filed as cell-based.
The mark [9] stands for this setting: wheat plants sprayed at 100 ppm, inoculated after 24 hours, control of fungal infection vs untreated plants.
Setting [10] is: 100 ppm spray, wheat, 24 hour protectant, control of fungal infection vs untreated plants.
The mark [11] stands for this setting: 100 ppm spray, 24 hour protectant, wheat, control of fungal infection vs untreated plants.

Structures are written as SMILES. Like-named read-outs stand apart in the source and are kept apart here. Some results are limits rather than exact numbers.

A word on the inhibition: it is the share of the control response that was lost under treatment. As for `COc1ccnc(C(=O)N[C@H]2COC(=O)[C@H](Cc3ccccc3)[C@@H](OC(=O)Cc3ccccc3)[C@H](C)OC2=O)c1O` [Compound 395], the inhibition at 25 ppm in assay [1] was under 80%; in [2] it was under 80%; in assay [3] it was over 80%; in assay [6], under 80%; in assay [7], over 80%; with Ustilago maydis (USTIMA), over 80%. In addition, the pest or weed control at 100 ppm in the assay with Erysiphe graminis—ERYSGT (24 h) is under 25%; with Septoria tritici—SEPTTR, 25 to 74%; in [4] (24 h) it was 25 to 74%; in assay [5] (24 h), 25 to 74%; in assay [8], under 25%.

Turning to `COc1ccnc(C(=O)N[C@H]2CO[C@H](C(C)Cc3ccc(C(C)(C)C)cc3)OC2)c1OC(C)=O` (stereo partly shown) [Compound 594], the inhibition at 25 ppm is under 80% in assay [1]; over 80% in assay [2]; over 80% in assay [3] (25 ppm in the growth medium); over 80% in assay [6]; over 80% in assay [7] (25 ppm in the growth medium); under 80% in the assay on Ustilago maydis (USTIMA). Besides, the pest or weed control at 100 ppm was under 25% in the assay on Erysiphe graminis—ERYSGT (setting [9]), 25 to 74% in the assay on Septoria tritici—SEPTTR (setting [9]), 25 to 74% in [4] (setting [9]) and under 25% in [8]. Further, the “PUCCRT in vivo 1 Day Protectant” value in assay [5] (setting [9]) is on record as “+ +”.

Regarding `COc1ccnc(C(=O)NC(C(=O)OCC(C)C)C(C)OC(=O)C(C)Cc2ccccc2)c1O` (stereo not shown) [Compound 360], the inhibition at 25 ppm (in assay [1]; in assay [2]; in assay [3] (25 ppm in growth medium); in assay [6]; in [7] (25 ppm in growth medium); with Ustilago maydis (USTIMA)) was under 80% in each case. In addition, the pest or weed control at 100 ppm with Erysiphe graminis—ERYSGT (setting [10]) was under 25%; in the assay with Septoria tritici—SEPTTR (setting [10]), 25 to 74%; in assay [5] (setting [10]) it was 25 to 74%; in [8], under 25%. Also, in assay [4] (setting [10]), the “LEPTNO in vivo 1 Day Protectant” value is on record as “+ +”.

As for `COc1ccnc(C(=O)NC(COC(=O)C(Cc2ccccc2)C(C)O[Si](C)(C)C(C)(C)C)C(=O)OC(C)C)c1O` (stereo not shown) [Compound 357], the inhibition at 25 ppm (in assay [1]; in assay [2]; in assay [3]; in assay [6]; in [7]; in the assay with Ustilago maydis (USTIMA)) was under 80% throughout. In addition, the pest or weed control at 100 ppm in the assay with Erysiphe graminis—ERYSGT (setting [10]) is under 25%; with Septoria tritici—SEPTTR (setting [10]), under 25%; in [4] (setting [10]), 25 to 74%; in assay [8], under 25%. In addition, the “PUCCRT in vivo 1 Day Protectant” value in [5] (setting [10]) is on record as “+ +”.

On to `COC(=O)C(COC(=O)CCc1ccccc1)NC(=O)c1nccc(OC)c1OC(C)=O` (stereo not shown) [Compound 583], for which the inhibition at 25 ppm (in assay [1]; in assay [2]; in [3] (25 ppm in the growth medium); in assay [6]; in [7] (25 ppm in the growth medium); in the assay on Ustilago maydis (USTIMA)) was under 80% each time. For the same molecule, the pest or weed control at 100 ppm was under 25% in the assay with Erysiphe graminis—ERYSGT (setting [9]); under 25% in the assay with Septoria tritici—SEPTTR (setting [9]); 25 to 74% in [4] (setting [9]); under 25% in [5] (setting [9]); under 25% in assay [8].

On to `COC(=O)C(CO)NC(=O)c1nccc(OC)c1O` (stereo not shown) [Compound 340], for which the inhibition at 25 ppm (in [1]; in assay [2]; in assay [3] (25 ppm in growth medium); in [6]; in assay [7] (25 ppm in growth medium); in the assay on Ustilago maydis (USTIMA)) was under 80% in each case. For the same molecule, the pest or weed control at 100 ppm with Erysiphe graminis—ERYSGT (setting [10]) was 25 to 74%; with Septoria tritici—SEPTTR (setting [10]) it was under 25%; in assay [4] (setting [10]) it was 25 to 74%; in [5] (setting [10]), under 25%; in assay [8] it was under 25%.

As for `O=C(NC(Cc1ccccc1)c1ccccc1)c1nc(Br)ccc1O` (stereo not shown) [Compound 491], the inhibition at 25 ppm was over 80% in assay [1]; under 80% in assay [2]; under 80% in [3] (25 ppm in the growth medium); under 80% in [6]; under 80% in assay [7] (25 ppm in the growth medium); under 80% in the assay with Ustilago maydis (USTIMA). Further, the pest or weed control at 100 ppm (with Erysiphe graminis—ERYSGT (setting [9]); in the assay with Septoria tritici—SEPTTR (setting [9]); in assay [4] (setting [9]); in assay [5] (setting [9]); in assay [8]) was under 25% each time.

As for `COc1ccc(Oc2ccccc2NC(=O)c2nccc(OC)c2O)cc1` [Compound 429], the inhibition at 25 ppm in assay [1] was under 80%; in assay [2], under 80%; in [3] (25 ppm in growth medium), over 80%; in assay [6] it was under 80%; in [7] (25 ppm in growth medium) it was under 80%; with Ustilago maydis (USTIMA), under 80%. Also, the pest or weed control at 100 ppm (in the assay with Erysiphe graminis—ERYSGT (setting [10]); in the assay with Septoria tritici—SEPTTR (setting [10]); in assay [4] (setting [10]); in [5] (setting [10]); in assay [8]) was under 25% each time.

Consider `O=C(Nc1ccc(Cl)cc1)c1ncccc1O` [Compound 213], for which the inhibition at 25 ppm was over 80% in [1]; under 80% in [2]; over 80% in assay [3] (25 ppm in growth medium); under 80% in [6]; under 80% in assay [7] (25 ppm in growth medium); under 80% in the assay on Ustilago maydis (USTIMA). The pest or weed control at 100 ppm in the assay with Erysiphe graminis—ERYSGT (setting [11]) is under 25%; with Septoria tritici—SEPTTR (setting [11]), under 25%; in assay [4] (setting [11]), under 25%; in [8], 25 to 74%. In addition, the “PUCCRT in vivo 1 Day Protectant” value in assay [5] (setting [11]) is reported as “+ +”.

With `C=C(C)C(=O)O[C@H]1[C@H](C)OC(=O)[C@@H](NC(=O)c2nccc(OC)c2O)COC(=O)[C@@H]1Cc1ccccc1` [Compound 386], the inhibition at 25 ppm was under 80% in assay [1]; under 80% in assay [2]; over 80% in [3] (25 ppm in growth medium); under 80% in [6]; over 80% in assay [7] (25 ppm in growth medium); under 80% with Ustilago maydis (USTIMA). Moreover, the pest or weed control at 100 ppm is 25 to 74% with Erysiphe graminis—ERYSGT (setting [10]), 25 to 74% with Septoria tritici—SEPTTR (setting [10]), 25 to 74% in assay [5] (setting [10]) and under 25% in assay [8]. Besides, the “LEPTNO in vivo 1 Day Protectant” value in assay [4] (setting [10]) is “+ +”.

For the molecule `COc1ccnc(C(=O)Nc2ccccc2Oc2ccc(C#N)cc2)c1O` [Compound 419], the inhibition at 25 ppm (in [1]; in [2]; in assay [3] (25 ppm in growth medium); in assay [6]; in assay [7] (25 ppm in growth medium); in the assay on Ustilago maydis (USTIMA)) was under 80% each time. Further, the pest or weed control at 100 ppm in the assay with Erysiphe graminis—ERYSGT (setting [10]) was under 25%; in the assay with Septoria tritici—SEPTTR (setting [10]) it was under 25%; in [4] (setting [10]), under 25%; in assay [5] (setting [10]), under 25%; in [8] it was 25 to 74%.
